Measured values reported in US20250255883A1, “Compositions and Methods for Treating Aging Hair” (CHL Industries, LLC, priority 2021, published 2025).

System: Normal human keratinocytes (HEKa)
Assay: Real-time quantitative PCR gene expression in normal human keratinocytes treated for 24 hours
Type: cell-based

- Fold Up- or Down-Regulation CYP1A1 (gene CYP1A1, 20 ug/mL, vs. water-treated control): −1.8 Fold
Structure (SMILES): C=CC1=C(C)C2=CC3=NC(=C(CC(=O)[O-])C4=NC(=C(C)C4=C([O-])[O-])C=c4[n-]c(c(C)c4CC)=CC1=N2)[C@@H](CCC(=O)[O-])[C@@H]3C.[Cu+2].[Na+].[Na+].[Na+] [TCCE6, trisodium copper (II) chlorin e6]
- Fold Up- or Down-Regulation 18S (gene 18S (housekeeping), 20 ug/mL, vs. water-treated control): 1.1 Fold
- Fold Up- or Down-Regulation AQP3 (gene AQP3, 20 ug/mL, vs. water-treated control): 1.7 Fold
- Fold Up- or Down-Regulation AREL1 (gene AREL1, 20 ug/mL, vs. water-treated control): −1.0 Fold
- Fold Up- or Down-Regulation ARRDC3 (gene ARRDC3, 20 ug/mL, vs. water-treated control): 6.1 Fold
- Fold Up- or Down-Regulation BAMBI (gene BAMBI, 20 ug/mL, vs. water-treated control): 6.2 Fold
- Fold Up- or Down-Regulation CCL20 (gene CCL20, 20 ug/mL, vs. water-treated control): 1.3 Fold
- Fold Up- or Down-Regulation CDKN1A (gene CDKN1A, 20 ug/mL, vs. water-treated control): 1.5 Fold
- Fold Up- or Down-Regulation CSF1 (gene CSF1, 20 ug/mL, vs. water-treated control): −1.3 Fold
- Fold Up- or Down-Regulation CSF2 (gene CSF2, 20 ug/mL, vs. water-treated control): −1.2 Fold
- Fold Up- or Down-Regulation CXCL1 (gene CXCL1, 20 ug/mL, vs. water-treated control): 1.6 Fold
- Fold Up- or Down-Regulation CXCL2 (gene CXCL2, 20 ug/mL, vs. water-treated control): 1.2 Fold
- Fold Up- or Down-Regulation CXCL3 (gene CXCL3, 20 ug/mL, vs. water-treated control): 1.7 Fold
- Fold Up- or Down-Regulation CXCL8 (gene CXCL8, 20 ug/mL, vs. water-treated control): 1.1 Fold
- Fold Up- or Down-Regulation CXCL10 (gene CXCL10, 20 ug/mL, vs. water-treated control): 2.0 Fold
- Fold Up- or Down-Regulation CYB561 (gene CYB561, 20 ug/mL, vs. water-treated control): −1.1 Fold
- Fold Up- or Down-Regulation DDX5 (gene DDX5, 20 ug/mL, vs. water-treated control): 1.0 Fold
- Fold Up- or Down-Regulation DEFB1 (gene DEFB1, 20 ug/mL, vs. water-treated control): 2.2 Fold
- Fold Up- or Down-Regulation EPGN (gene EPGN, 20 ug/mL, vs. water-treated control): 2.3 Fold
- Fold Up- or Down-Regulation FGF2 (gene FGF2, 20 ug/mL, vs. water-treated control): −1.2 Fold
- Fold Up- or Down-Regulation FOS (gene FOS, 20 ug/mL, vs. water-treated control): 3.7 Fold
- Fold Up- or Down-Regulation G2E3 (gene G2E3, 20 ug/mL, vs. water-treated control): −1.2 Fold
- Fold Up- or Down-Regulation GDF15 (gene GDF15, 20 ug/mL, vs. water-treated control): 1.9 Fold
- Fold Up- or Down-Regulation GPADH (gene GPADH (housekeeping), 20 ug/mL, vs. water-treated control): −1.2 Fold
- Fold Up- or Down-Regulation GPX2 (gene GPX2, 20 ug/mL, vs. water-treated control): −1.1 Fold
- Fold Up- or Down-Regulation HBEGF (gene HBEGF, 20 ug/mL, vs. water-treated control): 2.5 Fold
- Fold Up- or Down-Regulation HECTD1 (gene HECTD1, 20 ug/mL, vs. water-treated control): −1.0 Fold
- Fold Up- or Down-Regulation HERC1 (gene HERC1, 20 ug/mL, vs. water-treated control): 1.1 Fold
- Fold Up- or Down-Regulation HIF1AN (gene HIF1AN, 20 ug/mL, vs. water-treated control): −1.3 Fold
- Fold Up- or Down-Regulation HPRT1 (gene HPRT1 (housekeeping), 20 ug/mL, vs. water-treated control): 1.0 Fold
- Fold Up- or Down-Regulation HSP90B1 (gene HSP90B1, 20 ug/mL, vs. water-treated control): 1.4 Fold
- Fold Up- or Down-Regulation IFI44L (gene IFI44L, 20 ug/mL, vs. water-treated control): −2.5 Fold
- Fold Up- or Down-Regulation JUN (gene JUN, 20 ug/mL, vs. water-treated control): 1.2 Fold
- Fold Up- or Down-Regulation JUNB (gene JUNB, 20 ug/mL, vs. water-treated control): 1.9 Fold
- Fold Up- or Down-Regulation LTB4R (gene LTB4R, 20 ug/mL, vs. water-treated control): 1.1 Fold
- Fold Up- or Down-Regulation MAFF (gene MAFF, 20 ug/mL, vs. water-treated control): 2.2 Fold
- Fold Up- or Down-Regulation MAP1LC3B (gene MAP1LC3B, 20 ug/mL, vs. water-treated control): 1.5 Fold
- Fold Up- or Down-Regulation MAPK14 (gene MAPK14, 20 ug/mL, vs. water-treated control): −1.1 Fold
- Fold Up- or Down-Regulation MGAT1 (gene MGAT1, 20 ug/mL, vs. water-treated control): −1.7 Fold
- Fold Up- or Down-Regulation MGAT5 (gene MGAT5, 20 ug/mL, vs. water-treated control): 1.2 Fold
- Fold Up- or Down-Regulation MOGS (gene MOGS, 20 ug/mL, vs. water-treated control): −1.3 Fold
- Fold Up- or Down-Regulation N4BP1 (gene N4BP1, 20 ug/mL, vs. water-treated control): 1.3 Fold
- Fold Up- or Down-Regulation NFKBIA (gene NFKBIA, 20 ug/mL, vs. water-treated control): 1.3 Fold
- Fold Up- or Down-Regulation PELI1 (gene PELI1, 20 ug/mL, vs. water-treated control): 1.4 Fold
- Fold Up- or Down-Regulation PLAUR (gene PLAUR, 20 ug/mL, vs. water-treated control): 9.7 Fold
- Fold Up- or Down-Regulation PPP1R15A (gene PPP1R15A, 20 ug/mL, vs. water-treated control): 2.5 Fold
- Fold Up- or Down-Regulation PTGFRN (gene PTGFRN, 20 ug/mL, vs. water-treated control): −2.6 Fold
- Fold Up- or Down-Regulation PTGS2 (gene PTGS2, 20 ug/mL, vs. water-treated control): 2.4 Fold
- Fold Up- or Down-Regulation PTX3 (gene PTX3, 20 ug/mL, vs. water-treated control): 1.8 Fold
- Fold Up- or Down-Regulation REL (gene REL, 20 ug/mL, vs. water-treated control): −1.1 Fold
- Fold Up- or Down-Regulation RSAD2 (gene RSAD2, 20 ug/mL, vs. water-treated control): 1.2 Fold
- Fold Up- or Down-Regulation SAMD9L (gene SAMD9L, 20 ug/mL, vs. water-treated control): 1.5 Fold
- Fold Up- or Down-Regulation SOD2 (gene SOD2, 20 ug/mL, vs. water-treated control): −1.4 Fold
- Fold Up- or Down-Regulation SPRR2B (gene SPRR2B, 20 ug/mL, vs. water-treated control): 6.5 Fold
- Fold Up- or Down-Regulation TGFB1 (gene TGFB1, 20 ug/mL, vs. water-treated control): −1.2 Fold
- Fold Up- or Down-Regulation TNF (gene TNF, 20 ug/mL, vs. water-treated control): 1.2 Fold
- Fold Up- or Down-Regulation TNFAIP3 (gene TNFAIP3, 20 ug/mL, vs. water-treated control): 2.6 Fold
- Fold Up- or Down-Regulation UBE2S (gene UBE2S, 20 ug/mL, vs. water-treated control): −1.1 Fold
- Fold Up- or Down-Regulation UBE3B (gene UBE3B, 20 ug/mL, vs. water-treated control): 1.4 Fold
- Fold Up- or Down-Regulation UBE4B (gene UBE4B, 20 ug/mL, vs. water-treated control): −1.4 Fold
- Fold Up- or Down-Regulation UBE20 (gene UBE20, 20 ug/mL, vs. water-treated control): 2.5 Fold
- Fold Up- or Down-Regulation VCP (gene VCP, 20 ug/mL, vs. water-treated control): 1.2 Fold
- Fold Up- or Down-Regulation VEGFA (gene VEGFA, 20 ug/mL, vs. water-treated control): 2.5 Fold
- fold value changes of significantly (p<0.05) upregulated or downregulated genes (genes ARRDC3, BAMBI, CXCL10, DEFB1, EPGN, FOS, HBEGF, IFI44L, MAFF, PLAUR, PPP1R15A, PTGS2, SPRR2B, TNFAIP3, UBE20, VEGFA, 20 ug/mL): ≥ 2.0 ×
